{"source": "patent EP4778980A1", "about": "“SILICONE MATERIAL, SILICONE TUBE, IMPLANT AND PREPARATION METHOD THEREFOR, ROD CORE, PERFORATED IMPLANT AND PREPARATION METHOD THEREFOR AND USE THEREOF” (SHENYANG XINGHUA PHARMACEUTICAL TECHNOLOGY CO., LTD, priority 2023, dated 2025)", "origin": "cited, not measured here", "data": [{"molecule": "Cc1nc2n(c(=O)c1CCN1CCC(c3noc4cc(F)ccc34)CC1)CCCC2O", "note": "(stereo not shown) [Paliperidone]", "values": [{"measurement": "solubility", "value": "Paliperidone (98% purity) Mw = 426.48, 0.05 mg/ml"}]}]}
